Measurements reported in patent US20260372303A1, “5-Fluoro-4-Imino-3-Methyl-1-Tosyl-3, 4-Dihydropyrimidin-2(1H) -One for Fungicide-Resistant Fungus” (priority 2022, published 2026).

Assays:
Format in all cases: in vivo
[1] = system: Zymoseptoria tritici strain Zt 99; assay: In planta preventive efficacy on wheat cv. Alixan against Zymoseptoria tritici strain Zt 99; settings: for Disease Severity Intensity: % of length of 2nd leaf blade, preventive 24 h; for AUDPC: control 1352.9
Experimental: (§1) A series of experiments were conducted to evaluate the efficacy of flumetylsulforim (ADF-16) for treating different strains of Zymoseptoria tritici in comparison with commercially available fungicides. Table 1 describes the Z. tritici strains used in this study and Table 2 describes the fungicides used in this study.
(§2) Winter wheat plants cv. Alixan (Limagrain) at the BBCH 12 growth stage were treated preventively with sterile distilled water (control), ADF-16, penthiopyrad, metconazole or tebuconazole at the rates described in Table 2 with a hand sprayer at 2 bars.
(§3) After treatment, wheat plants were left to dry at room temperature for 1 hour and then placed in a climatic chamber: temperature of 24 °C day/18 °C night-photoperiod of 16 h light/8 h dark and a relative humidity of 65%.
(§4) Untreated or treated whole wheat plants were inoculated 24-hours post-treatment with a calibrated pycnospore suspension of Z. tritici strains Zt StA, Zt 61, Zt 99, Zt 20, Zt 19-52, and Zt 38-02. Three replicates (pots) of 6 wheat plants each were used for each condition tested.
(§5) After inoculation, pots were transferred in a climatic chamber: temperature of 20 °C day/17 °C night—photoperiod of 16 h light/8 h dark and controlled relative humidity.
(§6) Disease assessments were carried out at 15 days post inoculation (dpi), 21 dpi and 28 dpi by measuring the length of the necrosis on the second leaf blade. The intensity of infection was then determined as a percentage of the total length of 2nd leaf blade.
(§7) The fungicide efficacies were determined from the Area Under the Disease Progress Curve (AUDPC) values and expressed as a percentage of the untreated control.
(§8) The AUDPC is a quantitative measure of disease intensity over time. The most commonly used method for estimating the AUDPC, the trapezoidal method, is performed by multiplying the average disease intensity between each pair of adjacent timepoints by the corresponding time interval and this for each time interval. The AUDPC is determined with the following formula by adding all of the trapezoids:
(§9) [formula] • yi=disease severity at the ith observation • ti=time (days) at the ith observation • N=total number of observations

[2] = system: Zymoseptoria tritici strain Zt 20; assay: In planta preventive efficacy on wheat cv. Alixan against Zymoseptoria tritici strain Zt 20; settings: % of length of 2nd leaf blade, preventive 24 h
Experimental: as §1, §2, §3, §4, §5, §6, §7, §8, §9

[3] = system: Zymoseptoria tritici strain Zt 19-52; assay: In planta preventive efficacy on wheat cv. Alixan against Zymoseptoria tritici strain Zt 19-52; settings: % of length of 2nd leaf blade, preventive 24 h
Experimental: as §1, §2, §3, §4, §5, §6, §7, §8, §9

[4] = system: Zymoseptoria tritici strain Zt 38-02; assay: In planta preventive efficacy on wheat cv. Alixan against Zymoseptoria tritici strain Zt 38-02; settings: for Disease Severity Intensity: % of length of 2nd leaf blade, preventive 24 h; for AUDPC: control 1261.4
Experimental: as §1, §2, §3, §4, §5, §6, §7, §8, §9

[5] = system: Zymoseptoria tritici strain Zt 61; assay: In planta preventive efficacy on wheat cv. Alixan against Zymoseptoria tritici strain Zt 61; design: fungicide efficacy: concentration or dose not given beside the values; settings: for Disease Severity Intensity: % of length of 2nd leaf blade, preventive 24 h; for AUDPC: control 1194.9
Experimental: as §1, §2, §3, §4, §5, §6, §7, §8, §9

[6] = system: Zymoseptoria tritici strain Zt StA; assay: In planta preventive efficacy on wheat cv. Alixan against Zymoseptoria tritici strain Zt StA (control strain, sensitive); settings: for Disease Severity Intensity: % of length of 2nd leaf blade, preventive 24 h; for AUDPC: control 781.6
Experimental: as §1, §2, §3, §4, §5, §6, §7, §8, §9

[7] = rate N (g a.i./ha): ADF-16 100, penthiopyrad 200, metconazole 90, tebuconazole 250
[8] = rate N/2.5 (g a.i./ha): ADF-16 40, penthiopyrad 80, metconazole 36, tebuconazole 100
[9] = 15 dpi, rate N (g a.i./ha): ADF-16 100, penthiopyrad 200, metconazole 90, tebuconazole 250, control also no disease
[10] = 15 dpi, rate N/2.5 (g a.i./ha): ADF-16 40, penthiopyrad 80, metconazole 36, tebuconazole 100, control also no disease

CC(C)CC(C)c1sccc1NC(=O)c1cn(C)nc1C(F)(F)F (stereo not drawn) [Penthiopyrad]
Disease Severity Intensity ([1]; 15 dpi, rate N (g a.i./ha): ADF-16 100, penthiopyrad 200, metconazole 90, tebuconazole 250, control 47.9): 12.9 +/− 2.1c %
Disease Severity Intensity ([1]; 15 dpi, rate N/2.5 (g a.i./ha): ADF-16 40, penthiopyrad 80, metconazole 36, tebuconazole 100, control 47.9): 27.5 +/− 2.2b %
Disease Severity Intensity ([1]; 21 dpi, rate N (g a.i./ha): ADF-16 100, penthiopyrad 200, metconazole 90, tebuconazole 250, control 81.0): 70.2 +/− 2.8b %
Disease Severity Intensity ([1]; 21 dpi, rate N/2.5 (g a.i./ha): ADF-16 40, penthiopyrad 80, metconazole 36, tebuconazole 100, control 81.0): 72.0 +/− 3.6b %
Disease Severity Intensity ([1]; 28 dpi, rate N (g a.i./ha): ADF-16 100, penthiopyrad 200, metconazole 90, tebuconazole 250, control 92.2): 90.6 +/− 1.7ab %
Disease Severity Intensity ([1]; 28 dpi, rate N/2.5 (g a.i./ha): ADF-16 40, penthiopyrad 80, metconazole 36, tebuconazole 100, control 92.2): 90.9 +/− 1.6ab %
Efficacy (from AUDPC, percentage of the untreated control) [1, 7]: 32.9%
AUDPC [1, 7]: 908.4 +/− 11.3c
Efficacy (from AUDPC, percentage of the untreated control) [1, 8]: 20.4%
AUDPC [1, 8]: 1076.9 +/− 17.9b
Disease Severity Intensity [2, 9]: No disease
Disease Severity Intensity [2, 10]: No disease
Disease Severity Intensity ([2]; 21 dpi, rate N (g a.i./ha): ADF-16 100, penthiopyrad 200, metconazole 90, tebuconazole 250, control 77.2): 0.3 +/− 0.3e %
Disease Severity Intensity ([2]; 21 dpi, rate N/2.5 (g a.i./ha): ADF-16 40, penthiopyrad 80, metconazole 36, tebuconazole 100, control 77.2): 0.0 +/− 0.0e %
Disease Severity Intensity ([2]; 28 dpi, rate N (g a.i./ha): ADF-16 100, penthiopyrad 200, metconazole 90, tebuconazole 250, control 95.5): 1.2 +/− 0.6g %
Disease Severity Intensity ([2]; 28 dpi, rate N/2.5 (g a.i./ha): ADF-16 40, penthiopyrad 80, metconazole 36, tebuconazole 100, control 95.5): 2.0 +/− 1.4g %
Disease Severity Intensity ([3]; 15 dpi, rate N (g a.i./ha): ADF-16 100, penthiopyrad 200, metconazole 90, tebuconazole 250, control 22.0): 0.0 +/− 0.0b %
Disease Severity Intensity ([3]; 15 dpi, rate N/2.5 (g a.i./ha): ADF-16 40, penthiopyrad 80, metconazole 36, tebuconazole 100, control 22.0): 0.0 +/− 0.0b %
Disease Severity Intensity ([3]; 21 dpi, rate N (g a.i./ha): ADF-16 100, penthiopyrad 200, metconazole 90, tebuconazole 250, control 81.7): 0.0 +/− 0.0c %
Disease Severity Intensity ([3]; 21 dpi, rate N/2.5 (g a.i./ha): ADF-16 40, penthiopyrad 80, metconazole 36, tebuconazole 100, control 81.7): 0.0 +/− 0.0c %
Disease Severity Intensity ([3]; 28 dpi, rate N (g a.i./ha): ADF-16 100, penthiopyrad 200, metconazole 90, tebuconazole 250, control 91.0): 0.0 +/− 0.0f %
Disease Severity Intensity ([3]; 28 dpi, rate N/2.5 (g a.i./ha): ADF-16 40, penthiopyrad 80, metconazole 36, tebuconazole 100, control 91.0): 2.0 +/− 0.8e %
Disease Severity Intensity ([4]; 15 dpi, rate N (g a.i./ha): ADF-16 100, penthiopyrad 200, metconazole 90, tebuconazole 250, control 36.0): 0.0 +/− 0.0b %
Disease Severity Intensity ([4]; 15 dpi, rate N/2.5 (g a.i./ha): ADF-16 40, penthiopyrad 80, metconazole 36, tebuconazole 100, control 36.0): 0.0 +/− 0.0b %
Disease Severity Intensity ([4]; 21 dpi, rate N (g a.i./ha): ADF-16 100, penthiopyrad 200, metconazole 90, tebuconazole 250, control 84.3): 10.9 +/− 2.1e %
Disease Severity Intensity ([4]; 21 dpi, rate N/2.5 (g a.i./ha): ADF-16 40, penthiopyrad 80, metconazole 36, tebuconazole 100, control 84.3): 70.7 +/− 3.3b %
Disease Severity Intensity ([4]; 28 dpi, rate N (g a.i./ha): ADF-16 100, penthiopyrad 200, metconazole 90, tebuconazole 250, control 95.7): 54.9 +/− 3.2d %
Disease Severity Intensity ([4]; 28 dpi, rate N/2.5 (g a.i./ha): ADF-16 40, penthiopyrad 80, metconazole 36, tebuconazole 100, control 95.7): 86.5 +/− 2.1c %
Efficacy (from AUDPC, percentage of the untreated control) [4, 7]: 79.2%
AUDPC [4, 7]: 262.9 ± 12.5 days
Efficacy (from AUDPC, percentage of the untreated control) [4, 8]: 39.5%
AUDPC [4, 8]: 763.1 +/− 4.4b
Disease Severity Intensity [5, 9]: No disease
Disease Severity Intensity [5, 10]: No disease
Disease Severity Intensity ([5]; 21 dpi, rate N (g a.i./ha): ADF-16 100, penthiopyrad 200, metconazole 90, tebuconazole 250, control 63.3): 1.2 +/− 0.5d %
Disease Severity Intensity ([5]; 21 dpi, rate N/2.5 (g a.i./ha): ADF-16 40, penthiopyrad 80, metconazole 36, tebuconazole 100, control 63.3): 19.9 +/− 3.8b %
Disease Severity Intensity ([5]; 28 dpi, rate N (g a.i./ha): ADF-16 100, penthiopyrad 200, metconazole 90, tebuconazole 250, control 88.1): 18.2 +/− 2.8e %
Disease Severity Intensity ([5]; 28 dpi, rate N/2.5 (g a.i./ha): ADF-16 40, penthiopyrad 80, metconazole 36, tebuconazole 100, control 88.1): 74.3 +/− 2.3b %
fungicide efficacy ([5]; higher application rates (N)): ≥ 85%
fungicide efficacy ([5]; lower application rates (N/2.5)): ≤ 70%
Efficacy (from AUDPC, percentage of the untreated control) [5, 7]: 93.3%
AUDPC [5, 7]: 80.2 ± 9.8 days
Efficacy (from AUDPC, percentage of the untreated control) [5, 8]: 55.0%
AUDPC [5, 8]: 537.9 +/− 53.2b
Disease Severity Intensity [6, 9]: No disease
Disease Severity Intensity [6, 10]: No disease
Disease Severity Intensity ([6]; 21 dpi, rate N (g a.i./ha): ADF-16 100, penthiopyrad 200, metconazole 90, tebuconazole 250, control 36.5): 0.0 +/− 0.0b %
Disease Severity Intensity ([6]; 21 dpi, rate N/2.5 (g a.i./ha): ADF-16 40, penthiopyrad 80, metconazole 36, tebuconazole 100, control 36.5): 0.0 +/− 0.0b %
Disease Severity Intensity ([6]; 28 dpi, rate N (g a.i./ha): ADF-16 100, penthiopyrad 200, metconazole 90, tebuconazole 250, control 77.4): 0.0 +/− 0.0b %
Disease Severity Intensity ([6]; 28 dpi, rate N/2.5 (g a.i./ha): ADF-16 40, penthiopyrad 80, metconazole 36, tebuconazole 100, control 77.4): 0.0 +/− 0.0b %
Efficacy (from AUDPC, percentage of the untreated control) [6, 7]: 100%
AUDPC [6, 7]: 0.0 +/− 0.0b
Efficacy (from AUDPC, percentage of the untreated control) [6, 8]: 100%
AUDPC [6, 8]: 0.0 +/− 0.0b
